Source: patent US8778966B2, “Quinolinone derivatives as PARP and tank inhibitors” (Janssen Pharmaceutica, NV, priority 2007, dated 2014)

Assays:
TANK-2 enzyme = target: T1, TANK-2 enzyme (Homo sapiens, UniProt Q9H2K2); test: In vitro Scintillation Proximity Assay (SPA) for TANK-2 inhibitory activity; type: biochemical; conditions: for IC50: read-out: in vitro SPA assay TANK-2 pIC50 (converted)
T1 construct: made in house
T1 sequence (Q9H2K2 1-1166): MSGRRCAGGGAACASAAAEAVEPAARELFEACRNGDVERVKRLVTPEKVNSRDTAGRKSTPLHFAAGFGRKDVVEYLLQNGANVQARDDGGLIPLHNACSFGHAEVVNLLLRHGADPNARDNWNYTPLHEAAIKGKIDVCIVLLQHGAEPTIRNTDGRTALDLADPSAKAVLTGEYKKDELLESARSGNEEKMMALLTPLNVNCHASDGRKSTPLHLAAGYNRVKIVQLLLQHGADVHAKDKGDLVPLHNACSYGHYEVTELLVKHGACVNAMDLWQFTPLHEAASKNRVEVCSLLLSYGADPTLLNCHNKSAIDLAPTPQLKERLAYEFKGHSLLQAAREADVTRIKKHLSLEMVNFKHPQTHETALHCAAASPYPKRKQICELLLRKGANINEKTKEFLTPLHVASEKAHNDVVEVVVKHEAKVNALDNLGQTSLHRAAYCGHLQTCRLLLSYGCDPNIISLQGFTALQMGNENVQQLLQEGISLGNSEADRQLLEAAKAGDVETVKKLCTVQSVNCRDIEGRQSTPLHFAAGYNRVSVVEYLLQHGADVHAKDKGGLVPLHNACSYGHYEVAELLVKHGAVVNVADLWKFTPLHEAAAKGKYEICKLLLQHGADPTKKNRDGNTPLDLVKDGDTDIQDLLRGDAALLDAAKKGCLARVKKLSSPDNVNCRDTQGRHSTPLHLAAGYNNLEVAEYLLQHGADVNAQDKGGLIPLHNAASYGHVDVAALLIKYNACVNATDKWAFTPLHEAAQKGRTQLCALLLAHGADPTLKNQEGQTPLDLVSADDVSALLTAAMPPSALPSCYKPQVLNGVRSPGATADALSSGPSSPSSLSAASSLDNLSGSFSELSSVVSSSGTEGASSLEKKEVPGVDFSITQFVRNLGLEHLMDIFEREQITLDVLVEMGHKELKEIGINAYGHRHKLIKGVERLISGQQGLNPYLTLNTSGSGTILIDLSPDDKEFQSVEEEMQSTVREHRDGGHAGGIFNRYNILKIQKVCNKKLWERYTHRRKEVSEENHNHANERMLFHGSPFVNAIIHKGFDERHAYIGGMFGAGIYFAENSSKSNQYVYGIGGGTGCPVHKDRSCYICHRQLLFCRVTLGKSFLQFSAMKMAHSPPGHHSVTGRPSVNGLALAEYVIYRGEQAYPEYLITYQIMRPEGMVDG
Method in brief: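 TANK-2 (8 μg/ml final) auto-poly(ADP-ribosyl)ation with [3H]-NAD+/NAD donor was run in Ni flash plates in Tris/HCl pH 7.4 buffer with DTT and MgCl2, 120 min at room temperature, then stopped with excess NAD and scintillation-counted. Blank-corrected cpm was expressed as % of enzyme control, and IC50 was linearly interpolated and reported as pIC50.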

tubulin = test: Tubulin polymerization assay; type: biochemical; parameters: key: a compound showing 0 to 50% inhibition at 20 μM is reported as score 1; Score 2 compounds are defined as compound showing more than 50% inhibition at 20 μM and less than 50% inhibition at 5 μM; a compound showing more than 50% inhibition at 5 μM is reported as score 3; conditions: tested at 20 μM and 5 μM
Method in brief: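 Cytoskeleton kit tubulin was run in a 10 µl final volume at 37 °C, with fluorescence read every minute for 1 h. Polymerization was taken as the maximum slope (4-point linear regression) and expressed as % of no-compound control. Compounds were tested at 20 µM, then at 5 µM if inhibition exceeded 50%, and scored by % inhibition.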

| SMILES | IC50 (TANK-2 enzyme) | other results |
| --- | --- | --- |
| CCc1cc2ccc([C@](C)(C#N)Cc3ccccc3)cc2[nH]c1=O (single isomer, unassigned) [Compound 45] | 25.1 nM | melting point: 162 °C |
| CCc1cc2ccc(C(C)(C#N)Cc3cccc(CN(C)C)c3)cc2[nH]c1=O (centres unmarked) [Compound 7] | 158 nM |  |
| CCc1cc2ccc(C(C)(C#N)Cc3cccc(CN4CCN(C)CC4)c3)cc2[nH]c1=O (centres unmarked) [Compound 57] | 126 nM |  |
| CCc1cc2ccc(C(C)(C#N)Cc3cccc(CN4CCOCC4)c3)cc2[nH]c1=O (centres unmarked) [Compound 58] | 316 nM |  |
| CCc1cc2ccc(C(C)(C#N)Cc3cccc(CNC)c3)cc2[nH]c1=O (centres unmarked) [Compound 59] | 79.4 nM |  |
| CCc1cc2ccc(C(C)(C#N)Cc3cccc(CNCCOC)c3)cc2[nH]c1=O (centres unmarked) [Compound 60] | 63.1 nM |  |
| CCc1cc2ccc(C(C)(C#N)Cc3cccc(CNCCN4CCOCC4)c3)cc2[nH]c1=O (centres unmarked) [Compound 61] | 100 nM |  |
| CCc1cc2ccc(C(C)(C#N)Cc3cccc(C(=O)NCCOC)c3)cc2[nH]c1=O (centres unmarked) [Compound 62] | 79.4 nM |  |
| CCc1cc2ccc(C(C)(C#N)Cc3cccc(C(=O)N(C)C)c3)cc2[nH]c1=O (centres unmarked) [Compound 63] | 200 nM |  |
| CCc1cc2ccc(C(C)(C#N)Cc3cccc(N4CCNCC4)c3)cc2[nH]c1=O (centres unmarked) [Compound 64] | 25.1 nM |  |
| CCc1cc2ccc(C(C)(C#N)Cc3cccc(N4CCCCC4)c3)cc2[nH]c1=O (centres unmarked) [Compound 65] | 39.8 nM |  |
| CCc1cc2ccc(C(C)(C#N)Cc3cccc(N4CCN(C)CC4)c3)cc2[nH]c1=O (centres unmarked) [Compound 66] | 31.6 nM | tubulin polymerisation score (tubulin): 1 (a compound showing 0 to 50% inhibition at 20 μM is reported as score 1) |
| CCc1cc2ccc(C(C)(C#N)Cc3cccc(OCC4CC4)c3)cc2[nH]c1=O (centres unmarked) [Compound 67] | 126 nM |  |
| CCc1cc2ccc(C(C)(C#N)Cc3cccc(OCCCN4CCOCC4)c3)cc2[nH]c1=O (centres unmarked) [Compound 68] | 63.1 nM |  |
| CCc1cc2ccc(C(C)(C#N)Cc3cccc(OCCCN4CCN(C)CC4)c3)cc2[nH]c1=O (centres unmarked) [Compound 69] | 63.1 nM |  |
| Cc1cc2ccc(C(C)(C#N)Cc3noc(-c4cccc(C(F)(F)F)c4)n3)cc2[nH]c1=O (centres unmarked) [Compound 70] | 200 nM |  |
| Cc1cc2ccc(C(C)(C#N)Cc3cc4ccccc4s3)cc2[nH]c1=O (centres unmarked) [Compound 71] | 251 nM |  |
| Cc1cc2ccc(C(C)(C#N)Cc3ccc(Cl)s3)cc2[nH]c1=O (centres unmarked) [Compound 72] | 251 nM |  |
| Cc1cc2ccc(C(C)(C#N)Cc3ccc(C(F)(F)F)o3)cc2[nH]c1=O (centres unmarked) [Compound 73] | 251 nM |  |
| Cc1cc2ccc(C(C)(C#N)Cc3cccc4cccnc34)cc2[nH]c1=O (centres unmarked) [Compound 74] | 126 nM |  |
| Cc1cc2ccc(C(C)(C#N)Cc3nc4ccccc4s3)cc2[nH]c1=O (centres unmarked) [Compound 75] | 251 nM | tubulin polymerisation score (tubulin): 1 (a compound showing 0 to 50% inhibition at 20 μM is reported as score 1) |
| Cc1cc2ccc(C(C)(C#N)Cc3ccccc3)cc2[nH]c1=O (centres unmarked) [Compound 76] | 31.6 nM |  |
| CCc1cc2ccc(C(C)(C#N)Cc3ccc(OC)c(C#N)c3)cc2[nH]c1=O (centres unmarked) [Compound 77] | 100 nM |  |
| CCc1cc2ccc(C(C)(C#N)Cc3cc(C)ccc3C)cc2[nH]c1=O (centres unmarked) [Compound 78] | 158 nM |  |
| CCc1cc2ccc(C(C)(C#N)Cc3ccc(F)c(C)c3)cc2[nH]c1=O (centres unmarked) [Compound 79] | 79.4 nM |  |
| CCc1cc2ccc(C(C)(C#N)Cc3cc(Cl)ccc3OC)cc2[nH]c1=O (centres unmarked) [Compound 80] | 126 nM |  |
| CCc1cc2ccc(C(C)(C#N)Cc3cccc(Br)c3C)cc2[nH]c1=O (centres unmarked) [Compound 81] | 100 nM |  |

| SMILES | IC50 (TANK-2 enzyme) | other results |
| --- | --- | --- |
| CCc1cc2ccc(C(C)(C#N)Cc3ccc(Cl)c(C(F)(F)F)c3)cc2[nH]c1=O (centres unmarked) [Compound 82] | 398 nM |  |
| CCc1cc2ccc(C(C)(C#N)Cc3ccc(C)c(F)c3F)cc2[nH]c1=O (centres unmarked) [Compound 83] | 79.4 nM |  |
| CCc1cc2ccc(C(C)(C#N)Cc3c(C)cccc3C)cc2[nH]c1=O (centres unmarked) [Compound 84] | 126 nM |  |
| CCc1cc2ccc(C(C)(C#N)Cc3nc4ccccc4o3)cc2[nH]c1=O (centres unmarked) [Compound 85] | 100 nM | tubulin polymerisation score (tubulin): 1 (a compound showing 0 to 50% inhibition at 20 μM is reported as score 1) |
| CCc1cc2ccc(C(C)(C#N)Cc3csc(C)n3)cc2[nH]c1=O (centres unmarked) [Compound 86] | 158 nM |  |
| CCc1cc2ccc(C(C)(C#N)Cc3ccc4nccnc4c3)cc2[nH]c1=O (centres unmarked) [Compound 87] | 50.1 nM |  |
| CCc1cc2ccc(C(C)(C#N)Cc3c(C)c(C)cc(C)c3C)cc2[nH]c1=O (centres unmarked) [Compound 88] | 200 nM |  |
| CCc1cc2ccc(C(C)(C#N)Cc3c(C)c(C)c(C)c(C)c3C)cc2[nH]c1=O (centres unmarked) [Compound 89] | 316 nM |  |
| CCc1cc2ccc(C(C)(C#N)Cc3cc(Cl)cc4c3OCOC4)cc2[nH]c1=O (centres unmarked) [Compound 90] | 79.4 nM |  |
| CCc1cc2ccc(C(C)(C#N)Cc3cc4c(cc3Cl)OCO4)cc2[nH]c1=O (centres unmarked) [Compound 91] | 63.1 nM |  |
| CCc1cc2ccc(C(C)(C#N)Cc3cc(Cl)cc4c3OCOC4)cc2[nH]c1=O (centres unmarked) [Compound 92] |  | in vitro SPA assay TANK-2 pIC50 (TANK-2 enzyme): 7.1 |
| CCc1cc2ccc(C(C)(C#N)Cc3nncn3C)cc2[nH]c1=O (centres unmarked) [Compound 93] | 398 nM |  |
| CCc1cc2ccc(C(C)(C#N)Cc3cccc4nnn(C)c34)cc2[nH]c1=O (centres unmarked) [Compound 94] | 251 nM |  |
| CCc1cc2ccc(C(C)(C#N)Cc3nn(C)c4ccccc34)cc2[nH]c1=O (centres unmarked) [Compound 95] | 79.4 nM | tubulin polymerisation score (tubulin): 2 |
| CCc1cc2ccc(C(C)(C#N)Cc3cn4ccccc4n3)cc2[nH]c1=O (centres unmarked) [Compound 96] | 100 nM | tubulin polymerisation score (tubulin): 1 (a compound showing 0 to 50% inhibition at 20 μM is reported as score 1) |
| CCc1cc2ccc(C(C)(C#N)Cc3cccnc3)cc2[nH]c1=O (centres unmarked) [Compound 97] | 63.1 nM |  |
| CCc1cc2ccc(C(C)(C#N)Cc3ccncc3)cc2[nH]c1=O (centres unmarked) [Compound 98] | 31.6 nM | tubulin polymerisation score (tubulin): 1 (a compound showing 0 to 50% inhibition at 20 μM is reported as score 1) |
| CCc1cc2ccc(C(C)(C#N)Cc3cc(Cl)ccc3Cl)cc2[nH]c1=O (centres unmarked) [Compound 99] | 79.4 nM | tubulin polymerisation score (tubulin): 3 (a compound showing more than 50% inhibition at 5 μM is reported as score 3) |
| CCc1cc2ccc(C(C)(C#N)Cc3ccccc3C#N)cc2[nH]c1=O (centres unmarked) [Compound 101] | 39.8 nM |  |
| CCc1cc2ccc(C(C)(C#N)Cc3ccccc3OC(F)(F)F)cc2[nH]c1=O (centres unmarked) [Compound 102] | 200 nM |  |
| CCc1cc2ccc(C(C)(C#N)Cc3ccccc3C(F)(F)F)cc2[nH]c1=O (centres unmarked) [Compound 103] | 79.4 nM |  |
| CCc1cc2ccc(C(C)(C#N)Cc3ccc(F)c(C#N)c3)cc2[nH]c1=O (centres unmarked) [Compound 267] | 251 nM | tubulin polymerisation score (tubulin): 2 |
| CCc1cc2ccc(C(C)(C#N)CCOc3ccccc3C#N)cc2[nH]c1=O (centres unmarked) [Compound 276] | 79.4 nM | tubulin polymerisation score (tubulin): 1 (a compound showing 0 to 50% inhibition at 20 μM is reported as score 1) |
| CCc1cc2ccc(C(C)(C#N)CCOc3cc(Cl)c(Cl)cc3Cl)cc2[nH]c1=O (centres unmarked) [Compound 277] | 2000 nM | tubulin polymerisation score (tubulin): 2 |
| CCc1cc2ccc(C(C)(C#N)CCOc3ccccc3F)cc2[nH]c1=O (centres unmarked) [Compound 278] | 316 nM |  |
| CCc1cc2ccc(C(C)(C#N)CCOc3ccc4c(c3)OCO4)cc2[nH]c1=O (centres unmarked) [Compound 279] | 398 nM |  |
| CCc1cc2ccc(C(C)(C#N)Cc3cc(OC)cc(OC)c3)cc2[nH]c1=O (centres unmarked) [Compound 332] | 501 nM |  |
